Measurements published in patent US11524951B2, “2-(2,4,5-substituted-anilino)pyrimidine compounds” (AstraZeneca AB, priority 2011, dated 2022).

How the values were obtained:
Type in all cases: cell-based
[1] = target: T1, L858R/T790M EGFR (Homo sapiens, UniProt P00533, L858R/T790M); assay: L858R/T790M EGFR (double mutant) cellular phosphorylation assay; conditions: NCI-H1975 human lung cells; endogenous p-EGFR in cell lysates by ELISA; 2 h with compound
T1 construct: Assays to measure cellular phosphorylation of endogenous p-EGFR in cell lysates; endogenous in cells; host or cells: NCI-H1975 (human lung cell line)
T1 sequence (P00533 25-1210 T790M/L858R): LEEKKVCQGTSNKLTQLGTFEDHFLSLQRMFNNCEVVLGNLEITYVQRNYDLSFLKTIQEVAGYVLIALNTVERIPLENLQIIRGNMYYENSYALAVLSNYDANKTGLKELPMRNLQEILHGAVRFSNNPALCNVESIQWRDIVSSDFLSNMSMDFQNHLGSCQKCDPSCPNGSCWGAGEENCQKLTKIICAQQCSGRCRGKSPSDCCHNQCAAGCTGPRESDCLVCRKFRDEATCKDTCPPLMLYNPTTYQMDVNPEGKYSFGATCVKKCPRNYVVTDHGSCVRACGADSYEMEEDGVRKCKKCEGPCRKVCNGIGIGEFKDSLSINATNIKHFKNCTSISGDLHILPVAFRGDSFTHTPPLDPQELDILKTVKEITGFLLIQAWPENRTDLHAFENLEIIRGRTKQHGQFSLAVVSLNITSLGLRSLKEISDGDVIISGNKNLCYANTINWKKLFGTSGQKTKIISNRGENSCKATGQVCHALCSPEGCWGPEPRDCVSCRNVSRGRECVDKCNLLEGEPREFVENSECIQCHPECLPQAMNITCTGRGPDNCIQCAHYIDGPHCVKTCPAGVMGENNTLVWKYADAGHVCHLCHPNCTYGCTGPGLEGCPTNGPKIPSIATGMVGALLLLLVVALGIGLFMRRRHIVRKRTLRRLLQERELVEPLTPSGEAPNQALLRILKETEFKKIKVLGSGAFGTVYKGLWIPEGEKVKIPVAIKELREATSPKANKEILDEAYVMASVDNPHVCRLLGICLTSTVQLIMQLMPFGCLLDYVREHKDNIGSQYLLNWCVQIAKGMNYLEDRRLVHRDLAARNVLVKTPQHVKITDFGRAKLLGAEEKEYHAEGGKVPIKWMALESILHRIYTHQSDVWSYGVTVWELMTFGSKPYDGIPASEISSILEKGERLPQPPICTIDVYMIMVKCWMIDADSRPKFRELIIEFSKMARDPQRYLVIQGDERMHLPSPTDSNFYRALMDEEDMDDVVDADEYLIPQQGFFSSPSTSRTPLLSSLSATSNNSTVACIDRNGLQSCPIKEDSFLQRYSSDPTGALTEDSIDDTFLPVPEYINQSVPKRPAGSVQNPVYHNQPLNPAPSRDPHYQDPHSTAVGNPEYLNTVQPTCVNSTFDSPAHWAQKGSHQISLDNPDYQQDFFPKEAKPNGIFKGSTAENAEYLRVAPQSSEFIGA
Experimental: Assay 2: L858R/T790M EGFR (Double Mutant) Cellular Phosphorylation Assay
The human lung cell lines NCI-H1975 were obtained from the American type Culture Collection. […] Cells were grown in a humidified incubator at 37° C. with 5% CO2.
Assays to measure cellular phosphorylation of endogenous p-EGFR in cell lysates were carried out according to the protocol described in the R&D Systems DuoSet IC Human Phospho-EGF R ELISA (R&D Systems catalogue number #DYC1095).
40 μL of cells were seeded (10000 cells/well) in growth medium in Corning black, clear-bottomed 384-well plates and incubated at 37° C. with 5% CO2 overnight. […] Plates were incubated for a further 2 h and following aspiration of medium, 40 μL 1× lysis buffer was added to each well. Greiner black high bind 384-well plates were coated with capture antibody and then blocked with 3% BSA. Following removal of block, 15 μL of lysate were transferred to the Greiner black high bind 384-well plates and incubated for 2 hours. Following aspiration and washing of the plates with PBS, 20 μL of detection antibody were added and incubated for 2 hours. […] 20 μL QuantaBlu stop solution were added to plates and fluorescence read on an Envision plate reader using
The data obtained with each compound was exported into a suitable software package (such as Origin) to perform curve fitting analysis.

[2] = target: T2, Wild-type EGFR (Homo sapiens, UniProt P00533); assay: Wild-type EGFR cellular phosphorylation assay; conditions: LoVo human colon cells; endogenous p-EGFR in cell lysates by ELISA; 2 h with compound, then stimulated 100 ng/ml for 10 minutes; read-out: Assay 3 (IC50)
T2 construct: Assays to measure cellular phosphorylation of endogenous p-EGFR in cell lysates; endogenous in cells; host or cells: LoVo (human colon cell line)
T2 sequence (P00533 25-1210): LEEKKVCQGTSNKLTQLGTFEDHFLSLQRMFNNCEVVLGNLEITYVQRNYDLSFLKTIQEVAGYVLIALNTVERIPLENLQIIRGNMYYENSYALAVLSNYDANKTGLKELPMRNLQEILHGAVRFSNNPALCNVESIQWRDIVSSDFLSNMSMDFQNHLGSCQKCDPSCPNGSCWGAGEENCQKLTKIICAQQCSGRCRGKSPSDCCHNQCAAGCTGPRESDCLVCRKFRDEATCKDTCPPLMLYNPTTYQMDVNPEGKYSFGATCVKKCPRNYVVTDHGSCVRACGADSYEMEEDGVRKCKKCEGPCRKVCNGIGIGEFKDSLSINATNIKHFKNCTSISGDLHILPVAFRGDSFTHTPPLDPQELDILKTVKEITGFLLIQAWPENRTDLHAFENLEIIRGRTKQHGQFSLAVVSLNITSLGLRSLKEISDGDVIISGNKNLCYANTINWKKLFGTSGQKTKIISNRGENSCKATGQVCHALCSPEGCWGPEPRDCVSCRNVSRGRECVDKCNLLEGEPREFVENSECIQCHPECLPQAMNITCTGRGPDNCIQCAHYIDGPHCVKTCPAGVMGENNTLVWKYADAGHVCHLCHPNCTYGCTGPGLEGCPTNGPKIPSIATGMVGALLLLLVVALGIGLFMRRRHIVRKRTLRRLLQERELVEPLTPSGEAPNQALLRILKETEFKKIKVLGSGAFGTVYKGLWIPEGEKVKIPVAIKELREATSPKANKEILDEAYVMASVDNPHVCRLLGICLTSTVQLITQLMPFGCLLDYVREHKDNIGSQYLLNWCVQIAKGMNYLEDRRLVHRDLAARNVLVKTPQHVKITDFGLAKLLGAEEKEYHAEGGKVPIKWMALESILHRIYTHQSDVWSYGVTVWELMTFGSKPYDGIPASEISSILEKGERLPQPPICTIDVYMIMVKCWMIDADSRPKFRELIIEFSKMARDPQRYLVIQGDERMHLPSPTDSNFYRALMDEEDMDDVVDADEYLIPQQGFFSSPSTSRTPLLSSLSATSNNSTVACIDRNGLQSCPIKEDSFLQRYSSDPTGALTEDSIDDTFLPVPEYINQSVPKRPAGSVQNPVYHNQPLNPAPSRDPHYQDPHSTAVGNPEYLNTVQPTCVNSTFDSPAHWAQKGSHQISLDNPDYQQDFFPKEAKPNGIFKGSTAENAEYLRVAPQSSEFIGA
Experimental: Assay 3: Wild-Type EGFR Cellular Phosphorylation Assay
The human colon cell line LoVo were obtained from the American type Culture Collection. […] Cells were grown in a humidified incubator at 37° C. with 5% CO2. Assays to measure cellular phosphorylation of endogenous p-EGFR in cell lysates were carried out according to the protocol described in the R&D Systems DuoSet IC Human Phospho-EGF R ELISA (R&D Systems catalogue number #DYC1095). 40 μL of cells were seeded (15000 cells/well) in growth medium in Corning black, clear-bottomed 384-well plates and incubated at 37° C. with 5% CO2 overnight. […] Plates were incubated for a further 2 h then stimulated with 100 ng/ml for 10 minutes and following aspiration of medium, 40 μL 1× lysis buffer was added to each well. Greiner black high bind 384-well plates were coated with capture antibody and then blocked with 3% BSA. […] Following aspiration and washing of the plates with PBS, 20 μL of detection antibody were added and incubated for 2 hours. […] The data obtained with each compound was exported into a suitable software package (such as Origin) to perform curve fitting analysis.

[3] = target: T3, Exon19 deletion EGFR (Homo sapiens, UniProt P00533, DEL746-750); assay: Exon19 deletion EGFR (activating single mutant) cellular phosphorylation assay; conditions: PC9 human lung cells (Exon 19 deletion EGFR); endogenous p-EGFR in cell lysates by ELISA; 2 h with compound; read-out: Assay 1 (IC50)
T3 construct: Assays to measure cellular phosphorylation of endogenous p-EGFR in cell lysates; endogenous in cells; host or cells: PC9 (human lung cell line)
T3 sequence (P00533 with tags, fused parts or gaps DEL746-750): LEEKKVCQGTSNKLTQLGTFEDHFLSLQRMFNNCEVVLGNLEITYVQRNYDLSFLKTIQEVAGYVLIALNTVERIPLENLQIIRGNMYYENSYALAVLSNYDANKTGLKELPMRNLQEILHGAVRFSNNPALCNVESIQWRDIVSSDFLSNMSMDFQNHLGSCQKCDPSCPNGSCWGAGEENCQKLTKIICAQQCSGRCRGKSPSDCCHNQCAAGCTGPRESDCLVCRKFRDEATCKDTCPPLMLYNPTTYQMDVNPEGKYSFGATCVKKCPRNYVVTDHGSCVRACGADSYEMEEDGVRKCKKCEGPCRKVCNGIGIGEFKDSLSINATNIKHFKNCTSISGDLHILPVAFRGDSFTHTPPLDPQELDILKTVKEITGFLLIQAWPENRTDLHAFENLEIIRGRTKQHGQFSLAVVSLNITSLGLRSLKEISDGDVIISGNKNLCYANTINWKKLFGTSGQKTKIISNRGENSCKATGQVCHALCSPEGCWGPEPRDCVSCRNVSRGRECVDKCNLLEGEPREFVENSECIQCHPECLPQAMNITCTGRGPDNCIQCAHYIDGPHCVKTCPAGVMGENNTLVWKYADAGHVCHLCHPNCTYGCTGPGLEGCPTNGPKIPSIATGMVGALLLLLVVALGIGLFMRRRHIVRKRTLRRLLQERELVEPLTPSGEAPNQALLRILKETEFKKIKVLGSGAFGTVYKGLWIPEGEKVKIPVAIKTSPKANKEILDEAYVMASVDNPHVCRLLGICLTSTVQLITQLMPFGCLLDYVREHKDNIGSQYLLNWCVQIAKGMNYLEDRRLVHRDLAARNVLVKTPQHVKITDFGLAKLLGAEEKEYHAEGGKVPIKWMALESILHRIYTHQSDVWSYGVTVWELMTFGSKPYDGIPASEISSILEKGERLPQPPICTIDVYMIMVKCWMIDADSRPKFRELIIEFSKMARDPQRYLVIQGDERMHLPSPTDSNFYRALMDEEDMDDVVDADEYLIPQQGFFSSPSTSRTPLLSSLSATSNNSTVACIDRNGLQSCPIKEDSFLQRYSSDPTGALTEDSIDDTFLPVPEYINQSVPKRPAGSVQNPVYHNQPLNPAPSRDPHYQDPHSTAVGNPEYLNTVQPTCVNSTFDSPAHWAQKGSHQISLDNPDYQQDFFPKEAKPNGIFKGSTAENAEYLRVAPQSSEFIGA
Experimental: Assay 1: Exon19 Deletion EGFR (Activating Single Mutant) Cellular Phosphorylation Assay
The human lung cell line PC9 (Exon 19 deletion EGFR) were obtained from the American type Culture Collection. […] Cells were grown in a humidified incubator at 37° C. with 5% CO2. Assays to measure cellular phosphorylation of endogenous p-EGFR in cell lysates were carried out according to the protocol described in the R&D Systems DuoSet IC Human Phospho-EGF R ELISA (R&D Systems catalogue number #DYC1095). 40 μL of cells were seeded (10000 cells/well) in growth medium in Corning black, clear-bottomed 384-well plates and incubated at 37° C. with 5% CO2 overnight. […] Plates were incubated for a further 2 h, then following aspiration of medium, 40 μL 1× lysis buffer was added to each well. Greiner black high bind 384-well plates were coated with capture antibody and then blocked with 3% BSA. Following removal of block, […], of lysate were transferred to the Greiner black high bind 384-well plates and incubated for 2 hours. Following aspiration and washing of the plates with PBS, 20 μL of detection antibody were added and incubated for 2 hours. […] The data obtained with each compound was exported into a suitable software package (such as Origin) to perform curve fitting analysis.

| IC50 [1] | IC50 [2] | IC50 [3] | SMILES |
| --- | --- | --- | --- |
| 4.96 nM | 474 nM | 7.61 nM | C=CC(=O)Nc1cc(Nc2ncc(C)c(-c3cnn4ccccc34)n2)c(OC)cc1C1=CCN(C)CC1 [Example 1, N-{4-Methoxy-2-[1-methyl-3,6-dihydro-2H-pyridin-4-yl]-5-[(5-methyl-4-pyrazolo[1,5-a]pyridin-3-ylpyrimidin-2-yl)amino]phenyl}prop-2-enamide] |
| 1.5 nM | 41.2 nM | 1.29 nM | C=CC(=O)Nc1cc(Nc2ncc(Cl)c(-c3c[nH]c4ccccc34)n2)c(OC)cc1C1=CCN(C)CC1 [Example 2, N-(5-{[5-Chloro-4-(1H-indol-3-yl)pyrimidin-2-yl]amino}-4-methoxy-2-[1-methyl-3,6-dihydro-2H-pyridin-4-yl]phenyl)prop-2-enamide] |
| 15.5 nM | 522 nM | 10.5 nM | C=CC(=O)Nc1cc(Nc2ncc(C)c(-c3c[nH]c4ccccc34)n2)c(OC)cc1N1CCN(C)CC1 [Example 3, N-(5-{[4-(1H-Indol-3-yl)-5-methylpyrimidin-2-yl]amino}-4-methoxy-2-[4-methylpiperazin-1-yl]phenyl)prop-2-enamide] |
| 1.6 nM | 510 nM | 12.7 nM | C=CC(=O)Nc1cc(Nc2ncc(Cl)c(-c3cnn4ccccc34)n2)c(OC)cc1N1CC[C@@H](N(C)C)C1 [Example 4, N-{5-[(5-Chloro-4-pyrazolo[1,5-a]pyridin-3-ylpyrimidin-2-yl)amino]-2-[(3R)-3-dimethylaminopyrrolidin-1-yl]-4-methoxyphenyl}prop-2-enamide] |
| 0.669 nM | 196 nM | 2.18 nM | C=CC(=O)Nc1cc(Nc2ncc(Cl)c(-c3cnn4ccccc34)n2)c(OC)cc1N(C)CCN(C)C [Example 6, N-{5-[(5-Chloro-4-pyrazolo[1,5-a]pyridin-3-ylpyrimidin-2-yl)amino]-2-[2-dimethylaminoethyl-methylamino]-4-methoxyphenyl}prop-2-enamide] |
| 0.682 nM | 161 nM | 3.26 nM | C=CC(=O)Nc1cc(Nc2ncc(Cl)c(-c3cnn4ccccc34)n2)c(OC)cc1N1CC[C@@H]2CN(C)C[C@@H]21 [Example 7, N-{2-[(3aR,6aR)-5-Methyl-2,3,3a,4,6,6a-hexahydropyrrolo[3,2-c]pyrrol-1-yl]-5-[(5-chloro-4-pyrazolo[1,5-a]pyridin-3-ylpyrimidin-2-yl)amino]-4-methoxyphenyl}prop-2-enamide] |
| 5.48 nM | 1170 nM | 22.4 nM | C=CC(=O)Nc1cc(Nc2ncc(Cl)c(-c3cnn4ccccc34)n2)c(OC)cc1N1CC2(CCCN2C)C1 [Example 8, N-{5-[(5-Chloro-4-pyrazolo[1,5-a]pyridin-3-ylpyrimidin-2-yl)amino]-4-methoxy-2-[5-methyl-2,5-diazaspiro[3.4]octan-2-yl]phenyl}prop-2-enamide] |
| 2.82 nM | 874 nM | 9.96 nM | C=CC(=O)Nc1cc(Nc2ncc(Cl)c(-c3cnn4ccccc34)n2)c(OC)cc1C1=CCN(C)CC1 [Example 9, N-{5-[(5-Chloro-4-pyrazolo[1,5-a]pyridin-3-ylpyrimidin-2-yl)amino]-4-methoxy-2-[1-methyl-3,6-dihydro-2H-pyridin-4-yl]phenyl}prop-2-enamide] |
| 40 nM | 8430 nM | 73.8 nM | C=CC(=O)Nc1cc(Nc2ncc(Cl)c(-c3cnn4ccccc34)n2)c(OC)cc1N1CCN(CC(=O)N(C)C)CC1 [Example 10, N-{5-[(5-Chloro-4-pyrazolo[1,5-a]pyridin-3-ylpyrimidin-2-yl)amino]-2-[4-(2-dimethylamino-2-oxoethyl)piperazin-1-yl]-4-methoxyphenyl}prop-2-enamide] |
| 18.7 nM | 1600 nM | 28.5 nM | C=CC(=O)Nc1cc(Nc2ncc(Cl)c(-c3cnn4ccccc34)n2)c(OC)cc1N1CCN(C(=O)[C@H](C)N)CC1 [Example 11, (S)—N-{2-[4-(2-Aminopropanoyl)piperazin-1-yl]-5-[(5-chloro-4-pyrazolo[1,5-a]pyridin-3-ylpyrimidin-2-yl)amino]-4-methoxyphenyl}prop-2-enamide] |
| 5.82 nM | 1390 nM | 36.1 nM | C=CC(=O)Nc1cc(Nc2ncc(Cl)c(-c3cnn4ccccc34)n2)c(OC)cc1N1CC[C@H](N(C)C)C1 [Example 12, N-{5-[(5-Chloro-4-pyrazolo[1,5-a]pyridin-3-ylpyrimidin-2-yl)amino]-2-[(3S)-3-dimethylaminopyrrolidin-1-yl]-4-methoxyphenyl}prop-2-enamide] |
| 19.1 nM | 12500 nM | 53.3 nM | C=CC(=O)Nc1cc(Nc2ncc(C#N)c(-c3cnn4ccccc34)n2)c(OC)cc1N1CCN(C)CC1 [Example 14, N-{5-[(5-Cyano-4-pyrazolo[1,5-a]pyridin-3-ylpyrimidin-2-yl)amino]-4-methoxy-2-[4-methylpiperazin-1-yl]phenyl}prop-2-enamide] |
| 55.2 nM | 1070 nM | 14 nM | C=CC(=O)Nc1cc(Nc2nccc(-c3c[nH]c4ccccc34)n2)c(OC)cc1N1CCN(C)CC1 [Example 15, N-(5-{[4-(1H-Indol-3-yl)pyrimidin-2-yl]amino}-4-methoxy-2-{4-methylpiperazin-1-yl}phenyl)prop-2-enamide] |
| 70.5 nM | > 18900 nM | 144 nM | C=CC(=O)Nc1cc(Nc2nccc(-c3cnn4ccccc34)n2)c(OC)cc1N1CCN(C)CC1 [Example 16, N-[4-Methoxy-2-(4-methylpiperazin-1-yl)-5-[(4-pyrazolo[1,5-a]pyridin-3-ylpyrimidin-2-yl)amino]phenyl]prop-2-enamide] |
| 5.64 nM | 772 nM | 23.4 nM | C=CC(=O)Nc1cc(Nc2ncc(Cl)c(-c3c[nH]c4ccccc34)n2)c(OC)cc1N1CCN(C)CC1 [Example 17, N-(5-{[5-Chloro-4-(1H-indol-3-yl)pyrimidin-2-yl]amino}-4-methoxy-2-{4-methylpiperazin-1-yl}phenyl)prop-2-enamide] |
| 31.4 nM | 2700 nM | 66.4 nM | C=CC(=O)Nc1cc(Nc2ncc(C)c(-c3cn(C)c4ccccc34)n2)c(OC)cc1N1CCN(C)CC1 [Example 18, N-(4-Methoxy-5-{[5-methyl-4-(1-methylindol-3-yl)pyrimidin-2-yl]amino}-2-{4-methylpiperazin-1-yl}phenyl)prop-2-enamide] |
| 1.46 nM | 70.8 nM | 2.15 nM | C=CC(=O)Nc1cc(Nc2ncc(C)c(-c3cn(C)c4ccccc34)n2)c(OC)cc1N(C)CCN(C)C [Example 19, N-(2-{2-Dimethylaminoethyl-methylamino}-4-methoxy-5-{[5-methyl-4-(1-methylindol-3-yl)pyrimidin-2-yl]amino}phenyl)prop-2-enamide] |
| 5.28 nM | 193 nM | 7.49 nM | C=CC(=O)Nc1cc(Nc2ncc(C)c(-c3cn(C)c4ccccc34)n2)c(OC)cc1N1CC[C@@H](N(C)C)C1 [Example 20, N-(2-{(3R)-3-Dimethylaminopyrrolidin-1-yl}-4-methoxy-5-{[5-methyl-4-(1-methylindol-3-yl)pyrimidin-2-yl]amino}phenyl)prop-2-enamide] |
